Like-named read-outs stand apart in the source and are kept apart here.
Tests used:
[1] = tested on: Key Grass and Sedge Weeds as well as Grass Crops; experiment: Post-emergent Test II herbicidal activity (Table 16); type: in vivo; settings: post-emergence, 336 h, 14 d; for pest or weed control at 35 g/ha: 35 g ai/ha; for pest or weed control at 70 g/ha: 70 g ai/ha; for pest or weed control at 140 g/ha: 140 g ai/ha
Method in brief: (§1)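 Greenhouse-grown seedlings at first/second true leaf receive a track spray at 187 L/ha, using a highest rate plus two-fold serial dilutions down to 1/16×. Watering is by subirrigation to avoid wash-off. Percent injury (0-100) is judged by eye at 14 d against untreated plants.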

[2] = tested on: Key Broadleaf Weed and Crop Species; experiment: Post-emergent Test II herbicidal activity (Table 15); type: in vivo; settings: post-emergence, 336 h, 14 d; for pest or weed control at 35 g/ha: 35 g ai/ha; for pest or weed control at 70 g/ha: 70 g ai/ha; for pest or weed control at 140 g/ha: 140 g ai/ha
Method in brief: as §1

[3] = Cyperus esculentus, yellow nutsedge (Cyperus esculentus), read-out: Visual Growth Reduction (%) 14 Days After Application, CYPES
[4] = Echinochloa crus-galli, barnyardgrass (Echinochloa crus-galli), read-out: Visual Growth Reduction (%) 14 Days After Application, ECHCG
[5] = Oryza sativa, rice (Oryza sativa), read-out: Visual Growth Reduction (%) 14 Days After Application, ORYSA
[6] = Setaria faberi, giant foxtail (Setaria faberi), read-out: Visual Growth Reduction (%) 14 Days After Application, SETFA
[7] = Triticum aestivum, wheat, spring (Triticum aestivum), read-out: Visual Growth Reduction (%) 14 Days After Application, TRZAS
[8] = Zea mays, maize, corn (Zea mays), read-out: Visual Growth Reduction (%) 14 Days After Application, ZEAMX
[9] = Abutilon theophrasti, velvetleaf (Abutilon theophrasti), read-out: Visual Growth Reduction (%) 14 Days After Application, ABUTH
[10] = Amaranthus retroflexus, redroot pigweed (Amaranthus retroflexus), read-out: Visual Growth Reduction (%) 14 Days After Application, AMARE
[11] = Brassica napus, oilseed rape, canola (Brassica napus), read-out: Visual Growth Reduction (%) 14 Days After Application, BRSNN
[12] = Chenopodium album, lambsquarters (Chenopodium album), read-out: Visual Growth Reduction (%) 14 Days After Application, CHEAL
[13] = Euphorbia heterophylla, wild poinsettia (Euphorbia heterophylla), read-out: Visual Growth Reduction (%) 14 Days After Application, EPHHL
[14] = Helianthus annuus, sunflower (Helianthus annuus), read-out: Visual Growth Reduction (%) 14 Days After Application, HELAN

SMILES	pest or weed control at 35 g/ha [1, 3]	pest or weed control at 70 g/ha [1, 3]	pest or weed control at 140 g/ha [1, 3]	pest or weed control at 35 g/ha [1, 4]	pest or weed control at 70 g/ha [1, 4]	pest or weed control at 140 g/ha [1, 4]	pest or weed control at 35 g/ha [1, 5]	pest or weed control at 70 g/ha [1, 5]	pest or weed control at 140 g/ha [1, 5]	pest or weed control at 35 g/ha [1, 6]	pest or weed control at 70 g/ha [1, 6]	pest or weed control at 140 g/ha [1, 6]	pest or weed control at 35 g/ha [1, 7]	pest or weed control at 70 g/ha [1, 7]	pest or weed control at 140 g/ha [1, 7]	pest or weed control at 35 g/ha [1, 8]	pest or weed control at 70 g/ha [1, 8]	pest or weed control at 140 g/ha [1, 8]	pest or weed control at 35 g/ha [2, 9]	pest or weed control at 70 g/ha [2, 9]	also measured
COC(=O)c1nc(-c2ccc3cc[nH]c3c2F)c(F)c(N)c1OC [Compound 1.20]	0 to 29%	0 to 29%	0 to 29%	0 to 29%	60 to 74%	75 to 84%	0 to 29%	0 to 29%	0 to 29%	45 to 59%	75 to 84%	85 to 94%	0 to 29%	45 to 59%	60 to 74%	30 to 44%	45 to 59%	60 to 74%	45 to 59%	60 to 74%	pest or weed control at 140 g/ha [2, 9]: 60 to 74%; pest or weed control at 35 g/ha [2, 10]: 75 to 84%; pest or weed control at 70 g/ha [2, 10]: 85 to 94%; pest or weed control at 140 g/ha [2, 10]: 95 to 100%; pest or weed control at 35 g/ha [2, 11]: 95 to 100%; pest or weed control at 70 g/ha [2, 11]: 95 to 100%; pest or weed control at 140 g/ha [2, 11]: 95 to 100%; pest or weed control at 35 g/ha [2, 12]: 95 to 100%; pest or weed control at 70 g/ha [2, 12]: 95 to 100%; pest or weed control at 140 g/ha [2, 12]: 95 to 100%; pest or weed control at 35 g/ha [2, 13]: 95 to 100%; pest or weed control at 70 g/ha [2, 13]: 95 to 100%; pest or weed control at 140 g/ha [2, 13]: 95 to 100%; pest or weed control at 35 g/ha [2, 14]: 95 to 100%; pest or weed control at 70 g/ha [2, 14]: 95 to 100%; pest or weed control at 140 g/ha [2, 14]: 95 to 100%; melting point: 203 to 205 °C
COC(=O)c1nc(-c2cccc3[nH]ccc23)c(F)c(N)c1Cl [Compound 1.40]	0 to 29%	0 to 29%	0 to 29%	0 to 29%	0 to 29%	0 to 29%	0 to 29%	0 to 29%	0 to 29%	0 to 29%	0 to 29%	0 to 29%	0 to 29%	0 to 29%	0 to 29%	0 to 29%	0 to 29%	0 to 29%	0 to 29%	0 to 29%	pest or weed control at 140 g/ha [2, 9]: 0 to 29%; pest or weed control at 70 g/ha [2, 10]: 95 to 100%; pest or weed control at 35 g/ha [2, 11]: 0 to 29%; pest or weed control at 70 g/ha [2, 11]: 0 to 29%; pest or weed control at 140 g/ha [2, 11]: 0 to 29%; pest or weed control at 35 g/ha [2, 12]: 0 to 29%; pest or weed control at 70 g/ha [2, 12]: 0 to 29%; pest or weed control at 140 g/ha [2, 12]: 0 to 29%; pest or weed control at 35 g/ha [2, 13]: 0 to 29%; pest or weed control at 70 g/ha [2, 13]: 0 to 29%; pest or weed control at 140 g/ha [2, 13]: 0 to 29%; pest or weed control at 35 g/ha [2, 14]: 0 to 29%; pest or weed control at 70 g/ha [2, 14]: 30 to 44%; pest or weed control at 140 g/ha [2, 14]: 45 to 59%; melting point: 233 to 236 °C
COC(=O)c1nc(-c2ccc(Cl)c3[nH]ccc23)cc(N)c1Cl [Compound 1.44]	0 to 29%	0 to 29%	0 to 29%	0 to 29%	0 to 29%	0 to 29%	0 to 29%	0 to 29%	0 to 29%	0 to 29%	0 to 29%	0 to 29%	0 to 29%	0 to 29%	0 to 29%	0 to 29%	0 to 29%	0 to 29%	0 to 29%	75 to 84%	pest or weed control at 140 g/ha [2, 9]: 85 to 94%; pest or weed control at 35 g/ha [2, 10]: 85 to 94%; pest or weed control at 70 g/ha [2, 10]: 95 to 100%; pest or weed control at 140 g/ha [2, 10]: 95 to 100%; pest or weed control at 35 g/ha [2, 11]: 0 to 29%; pest or weed control at 70 g/ha [2, 11]: 0 to 29%; pest or weed control at 140 g/ha [2, 11]: 30 to 44%; pest or weed control at 35 g/ha [2, 12]: 85 to 94%; pest or weed control at 70 g/ha [2, 12]: 85 to 94%; pest or weed control at 140 g/ha [2, 12]: 95 to 100%; pest or weed control at 35 g/ha [2, 13]: 45 to 59%; pest or weed control at 70 g/ha [2, 13]: 75 to 84%; pest or weed control at 140 g/ha [2, 13]: 85 to 94%; pest or weed control at 35 g/ha [2, 14]: 0 to 29%; pest or weed control at 70 g/ha [2, 14]: 0 to 29%; pest or weed control at 140 g/ha [2, 14]: 0 to 29%; melting point: 116 °C

From US20170050957A1, “4-AMINO-6-(HETEROCYCLIC)PICOLINATES AND 6-AMINO-2-(HETEROCYCLIC)PYRIMIDINE-4-CARBOXYLATES AND THEIR USE AS HERBICIDES” (Dow AgroSciences LLC, priority 2013, published 2017)
